In one experiment the target is T1, CTAT (Leishmania donovani, UniProt A0A3Q8INT3).
T1 construct: gene LdCL_360030600; C-terminal 60 residues (180 bp) deleted; printed 389 aa (1,167 bp; end may be 388); two His-tags (N and C) from pET28a(+), about 45 kDa on gel, E. coli BL21, Ni-NTA
Briefly: UV absorption scan […]-500 nm, aldimine bond formation. Type of experiment: binding. The note with it: 4 mM PLP; 0.5 and 1 mg/ml protein; 25 °C; 30 min; covalent, internal aldimine at K286.

Experiment [1] has as its target T2, NTAT (Leishmania donovani, UniProt A0A3Q8INT3). Described as above. Type of experiment: binding. The arrangement: gene LdCL_360030600; N-terminal 60 residues (180 bp) deleted, starts T61, runs to native C-terminus; His-tag from pET28a(+), E. coli BL21, Ni-NTA; parent gene 1,347 bp. The note with it: 4 mM PLP; 0.5 and 1 mg/ml protein; 25 °C; 30 min; covalent, internal aldimine at K286.

The target of experiment [2] is T2, NTAT. The arrangement: gene LdCL_360030600. The note with it: co-substrate sodium pyruvate 100 mM; 30 µM PLP; pH 8; 37 °C; tyrosine 0-7 mM; apparent.

A word on the Km: it is the concentration of substrate that gives half-maximal velocity.

T2 sequence (A0A3Q8INT3 entry or part of it): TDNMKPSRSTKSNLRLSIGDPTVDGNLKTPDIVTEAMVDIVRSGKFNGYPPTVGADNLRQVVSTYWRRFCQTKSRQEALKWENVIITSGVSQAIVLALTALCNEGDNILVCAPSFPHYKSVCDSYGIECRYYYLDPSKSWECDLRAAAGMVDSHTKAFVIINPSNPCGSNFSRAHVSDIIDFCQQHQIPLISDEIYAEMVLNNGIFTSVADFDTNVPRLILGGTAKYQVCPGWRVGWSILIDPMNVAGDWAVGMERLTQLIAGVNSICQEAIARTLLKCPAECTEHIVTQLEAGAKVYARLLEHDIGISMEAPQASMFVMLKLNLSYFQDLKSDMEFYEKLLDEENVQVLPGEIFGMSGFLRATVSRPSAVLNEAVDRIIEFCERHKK
T1 sequence (A0A3Q8INT3 entry or part of it): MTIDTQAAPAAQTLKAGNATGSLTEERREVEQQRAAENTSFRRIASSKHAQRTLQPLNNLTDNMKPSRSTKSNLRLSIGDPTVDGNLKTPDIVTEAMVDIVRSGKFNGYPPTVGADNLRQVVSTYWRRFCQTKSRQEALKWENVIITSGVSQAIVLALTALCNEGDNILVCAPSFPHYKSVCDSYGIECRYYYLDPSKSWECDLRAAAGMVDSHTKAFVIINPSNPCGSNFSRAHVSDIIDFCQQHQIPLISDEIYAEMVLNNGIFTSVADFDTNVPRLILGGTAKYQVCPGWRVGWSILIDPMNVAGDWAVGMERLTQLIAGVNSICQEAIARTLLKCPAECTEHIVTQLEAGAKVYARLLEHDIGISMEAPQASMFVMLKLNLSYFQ

For `Cc1ncc(COP(=O)(O)O)c(C=O)c1O` [PLP], the “UV absorption scan 300-500 nm, aldimine bond formation” value on CTAT was “In CTAT, the PLP binding was higher than NTAT”; on NTAT [1], “The increase in the concentration of NTAT or CTAT bound more PLP and formed aldimine bonds”.

Consider `N[C@@H](Cc1ccc(O)cc1)C(=O)O` [tyrosine], for which the Km at NTAT [2] is 3.47 ± 0.796 mM.

For the origin of these results see PMC7385629 (Scientific Reports, 2020).
